assay: logBB, log(C brain / C blood); conditions: blood

Row | Kp | Structure (SMILES)
1 | 1.86 | FC(Br)C(F)(F)F (stereo not drawn)
2 | 7.94 | CCCC(C)CC (stereo not drawn)
3 | 10.2 | CCC(C)CC
4 | 0.692 | CCO [ALCOHOL]
5 | 1 | NC(=O)N1c2ccccc2C=Cc2ccccc21 [CARBAMAZEPINE]
6 | 2.24 | FC(F)(F)C(Cl)Br (stereo not drawn) [HALOTHANE]
7 | 6.46 | CCCCCCC [HEPTANE]
8 | 2.63 | FC(F)OC(Cl)C(F)(F)F (stereo not drawn) [ISOFLURANE]
9 | 0.708 | CC(C)O [ISOPROPYL ALCOHOL]
10 | 8.51 | CC1CCCC1 [METHYLCYCLOPENTANE]

Further lines, the compound ahead of its results:

Row | Structure (SMILES) | Kp
11 | FC(F)OC(F)(F)C(F)Cl (stereo not drawn) | 1.74
12 | CN1Cc2c(-c3noc(C(C)(O)CO)n3)ncn2-c2cccc(Cl)c2C1=O (stereo not drawn) | 0.0151
13 | c1ccccc1 [BENZENE] | 2.34
14 | CCC(C)=O [BUTANONE] | 0.832
15 | C=COCC(F)(F)F [FLUROXENE] | 1.35
16 | CCCCCC [HEXANE] | 6.31
17 | Cc1ccccc1 [TOLUENE] | 2.34
18 | CC(Cl)(Cl)Cl [TRICHLOROETHANE] | 2.51
19 | ClC=C(Cl)Cl [TRICHLOROETHYLENE] | 2.19

same assay, conditions: brain / blood

Row | Kp | Structure (SMILES)
20 | 11 | CCC(C)(C)C
21 | 0.537 | CN(C)Cc1ccc(-c2cccc(Nc3[nH]ccc3[N+](=O)[O-])c2)o1
22 | 0.457 | NC(=O)N1c2ccccc2C2OC2c2ccccc21 (stereo not drawn) [CARBAMAZEPINE EPOXIDE]
23 | 0.676 | CC(C)CO [ISOBUTANOL]
24 | 1.1 | C [METHANE]
25 | 1.07 | N#N [NITROGEN]

The remaining lines, values behind:

Row | Structure (SMILES) | Kp
26 | FC(F)(F)CCl | 1.2
27 | CN1Cc2c(-c3noc(C(C)(C)O)n3)ncn2-c2cccc(Cl)c2C1=O | 0.0457
28 | CC(C)c1nc(-c2ncn3c2CN(C)C(=O)c2c(Cl)cccc2-3)no1 | 0.501
29 | CCCC(C)C | 9.33
30 | CCCCC [PENTANE] | 5.75

assay: The ratio of brain-blood partitioning, (C brain / C blood).; format: ADME, tissue-based; conditions: not given

Row | Structure (SMILES) | Kp
31 | CN1Cc2c(-c3noc(C(C)(O)CO)n3)ncn2-c2cccc(Cl)c2C1=O (stereo not drawn) | 0.015
32 | CN1Cc2c(-c3noc(C(C)(C)O)n3)ncn2-c2cccc(Cl)c2C1=O | 0.046
33 | CC(C)c1nc(-c2ncn3c2CN(C)C(=O)c2c(Cl)cccc2-3)no1 | 0.5
34 | CN(C)CCC=C1c2ccccc2CCc2ccccc21 [AMITRIPTYLINE] | 9.6
35 | NC(=O)N1c2ccccc2C2OC2c2ccccc21 (stereo not drawn) [CARBAMAZEPINE EPOXIDE] | 0.46
36 | NC(=O)N1c2ccccc2C=Cc2ccccc21 [CARBAMAZEPINE] | 1

assay: logBB, log(C brain/C blood); conditions: blood

Row | Kp | Structure (SMILES)
37 | 0.575 | O=C(NCCCOc1cccc(CN2CCCCC2)c1)c1ccccc1
38 | 4.9 | c1ccc(NCCCOc2cccc(CN3CCCCC3)c2)nc1
39 | 0.347 | CC(=O)NCCCOc1cccc(CN2CCCCC2)c1
40 | 0.0269 | CC(=O)Nc1cccc(-c2csc(N=C(N)N)n2)c1
41 | 0.186 | CN(C)Cc1ccc(CSCCNc2[nH]cc(Cc3ccccc3)c2[N+](=O)[O-])o1
42 | 0.00708 | CC/N=C(\NC#N)NCCSCc1ncccc1Br
43 | 6.76 | CN(C)CCCN1c2ccccc2CCc2ccccc21 [IMIPRAMINE]

Further lines, the compound ahead of its results:

Row | Structure (SMILES) | Kp
44 | Cc1csc(N=C(N)N)n1 | 0.912
45 | CN(C)Cc1ccnc(-c2cccc(Nc3[nH]ccc3[N+](=O)[O-])c2)c1 | 0.525
46 | c1cc(CN2CCCCC2)cc(OCCCNc2nccs2)c1 | 2.75
47 | CN/C(=N/CCSCc1nc[nH]c1C)NC#N [CIMETIDINE] | 0.038
48 | COc1cccnc1CCCCNc1ncc(Cc2ccc(C)nc2)c(=O)[nH]1 [ICOTIDINE] | 0.01
49 | COc1ccc(CN(CCN(C)C)c2ccccn2)cc1 [PYRILAMINE] | 3.09

same assay, conditions: brain / blood

Row | Kp | Structure (SMILES)
50 | 0.0501 | CN(C)Cc1ccc(CSCCNc2ncc(Cc3ccc4ccccc4c3)c(O)n2)o1
51 | 0.214 | O=[N+]([O-])c1cc[nH]c1NCCSCc1ncccc1Br
52 | 0.0759 | CN(C)Cc1ccc(CSCCNc2[nH]ccc2[N+](=O)[O-])o1
53 | 0.0708 | N=C(N)Nc1nc(-c2cccc(N)c2)cs1
54 | 0.0676 | CN(C)c1cc(-c2n[nH]c(N)n2)ccn1
55 | 0.0288 | C/N=C(\NC#N)Nc1cccc(-c2csc(N=C(N)N)n2)c1

Second part, the compound before the results:

Row | Structure (SMILES) | Kp
56 | O=[N+]([O-])c1c(Cc2ccccc2)c[nH]c1NCCSCc1ccccn1 | 0.759
57 | NC(N)=Nc1nc(-c2ccccc2)cs1 | 0.661
58 | Cc1ccc(Cc2c[nH]c(NCCSCc3ccc(CN(C)C)o3)nc2=O)cn1 [LUPITIDINE] | 0.0871

Reference: ChEMBL document CHEMBL1129412, “Computation of brain-blood partitioning of organic solutes via free energy calculations” (J Med Chem, 1996)
